Source: patent US11492341B2, “ACLY inhibitors and uses thereof” (Nimbus Artemis, Inc., priority 2018, dated 2022)

Columns and labels:
ACC2 = ACC2 isolated from rat, mouse, monkey and human; cited from earlier work
ACC1 = ACC1 isolated from rat, mouse, monkey and human; cited from earlier work
HepG2 cells [1] = assay: ACLY HepG2 14C-pyruvate incorporation assay with serum (IC50 Cholesterol); format: cell-based; details: Homo sapiens, Table 7, with serum, IC50 Cholesterol per table title and b713 (column head prints Fatty Acid), read-out: ACLY HepG2 ^14C- Pyruvate Assay with serum IC50 Fatty Acid 96 well (IC50)
Protocol: (§1) Example 30. ACLY HepG2 ^14C-Pyruvate Incorporation Assay with Serum
(§2) Compounds of the invention were also assayed in an ACLY HepG2 ^14C-pyruvate incorporation assay with serum (IC50 Cholesterol) and (IC50 Fatty Acid). The protocol of the assay (below) was followed:
(§3) HepG2 cells were seed at 5 k cells/well in 96-well cell culture plate in DMEM with 10% FBS (heat inactivated and 25 mM glucose). After 48 hours, the medium was replaced with fresh medium containing 10% FBS (heat inactivated and 25 mM glucose).
(§4) After 18 hours, the medium was replaced with 200 uL of DMEM (5.5 mM glucose without pyruvate) with or without FBS containing compounds (30, 10, 3.33, 1.11, 0.370, 0.123, 0.041 uM). DMSO concentration was 0.5%. The cells were incubated with compounds at 37° C. for 1 hour.
(§5) 2 μci of [14C]-pyruvate was added per well and the cell samples were incubated at 37° C., 5% CO2 for 5 hours.
(§6) The medium was removed and placed into a 96-well polypropylene deep well plate. 200 uL of 0.1N NaOH was added to each well at room temperature to dissolve cell monolayer. The remaining cell suspension was pooled with medium in a 96-well polypropylene deep well plate. 68 uL of 50% KOH was added to the plate containing medium and cell suspensions and capped.
(§7) Cells were incubated at 70° C. for 1 hour, and then cooled to room temperature.
6. Cholesterol Extraction
1 mL petroleum ether was added per well to extract non-saponifyable lipids (primarily sterols such as cholesterol), shaken vigorously, and centrifuged at 1000 rpm for 5 minutes. 500 μL of the petroleum ether layer was then transferred to a 96 well plate and 200 ul of H2O was added, shaken vigorously, and centrifuged at 1000 rpm for 5 minutes. The petroleum ether layer 500 ul was transferred to a new 96-well plate and evaporated to dryness with SpeedVac overnight. 200 μL of scintillation cocktail was then added and shaken and transferred to a 96 well optiplate and counted using the Microbeta Liquid Scintillation Counter.

HepG2 cells [2] = assay: ACLY HepG2 14C-pyruvate incorporation assay with serum (IC50 Fatty Acid); format: cell-based; details: Homo sapiens, Table 8, with serum, read-out: ACLY HepG2 ^14C- Pyruvate Assay with serum IC50 Fatty Acid 96 well (IC50)
Protocol: as §1, §2, §3, §4, §5, §6, §7
400 ul of the remaining 500 ul petroleum ether layer was removed and discard. 1 mL petroleum ether was added to the well, shaken vigorously, and centrifuged at 1000 rpm for 5 minutes. All 1100 ul of the petroleum ether layer removed and discarded. The aqueous phase was then acidified with 500 uL of concentrated HCl, checking pH of one or two extracts to make sure pH below 1 (critical, check by PH paper).
8. Fatty acids extraction
1 mL of petroleum ether was added per well to extract saponifyable lipids (extracted as fatty acids originating from saponified lipids such as triglycerides and phospholipids), shaken vigorously, centrifuged at 1000 rpm for 5 min, and 500 uL of the petroleum ether layer was then transferred to a new 96-well deep well plate. Repeat petroleum ether extraction step one more time and pool the petroleum ether extracts. Evaporate to dryness with SpeedVac overnight. 200 μL of scintillation cocktail was added and shaken and transferred to a 96 well optiplate and counted using the Microbeta Liquid Scintillation Counter.

ACL = ACL (Homo sapiens (Human), UniProt P53396); assay: ADP-Glo Assay; format: biochemical; details: 3 nM ACL, 15 μM ATP, 3 μM CoA, 300 μM Citrate
Protocol: Example 28. ADP-Glo Assay
Compounds of the present invention were evaluated in an ADP-GLO assay as follows: a) Dilute cpd 1:3 in succession in DMSO by hand for each cpds for 12 pts b) Add 0.1 μL diluted cpd solution to assay plate, each dose with 2 replicates c) Centrifuge 1000 RPM for 1 min d) Add 5 μL ACL working solution to 384-well assay plate, centrifuge 1000 RPM for 1 min e) Incubate at 25° C. for 15 min f) Add 5 μL substrate working solution to initiate reaction g) Final ACL reaction concentrations: 3 nM ACL, 15 μM ATP, 3 μM CoA, 300 μM Citrate, 0.01% Brij35, 4 mM DTT, 1% DMSO; h) Reference final conc: 30 uM starting Conc, 3× dilution, 11+0 points. Test cpd conc: 30/100 uM starting Conc, 3× dilution, 11+0 points. i) Incubate at 25° C. for 60 min j) Add 10 μL ADP Glo reagent, centrifuge 1000 RPM for 1 min k) Incubate at 25° C. for 40 min l) Add 20 μL kinase detection reagent, centrifuge 1000 RPM for 1 min m) Incubate at 25° C. for 40 min n) Read on Envision for US LUM as RLU

Chain of ACL (P53396 whole entry, species assumed): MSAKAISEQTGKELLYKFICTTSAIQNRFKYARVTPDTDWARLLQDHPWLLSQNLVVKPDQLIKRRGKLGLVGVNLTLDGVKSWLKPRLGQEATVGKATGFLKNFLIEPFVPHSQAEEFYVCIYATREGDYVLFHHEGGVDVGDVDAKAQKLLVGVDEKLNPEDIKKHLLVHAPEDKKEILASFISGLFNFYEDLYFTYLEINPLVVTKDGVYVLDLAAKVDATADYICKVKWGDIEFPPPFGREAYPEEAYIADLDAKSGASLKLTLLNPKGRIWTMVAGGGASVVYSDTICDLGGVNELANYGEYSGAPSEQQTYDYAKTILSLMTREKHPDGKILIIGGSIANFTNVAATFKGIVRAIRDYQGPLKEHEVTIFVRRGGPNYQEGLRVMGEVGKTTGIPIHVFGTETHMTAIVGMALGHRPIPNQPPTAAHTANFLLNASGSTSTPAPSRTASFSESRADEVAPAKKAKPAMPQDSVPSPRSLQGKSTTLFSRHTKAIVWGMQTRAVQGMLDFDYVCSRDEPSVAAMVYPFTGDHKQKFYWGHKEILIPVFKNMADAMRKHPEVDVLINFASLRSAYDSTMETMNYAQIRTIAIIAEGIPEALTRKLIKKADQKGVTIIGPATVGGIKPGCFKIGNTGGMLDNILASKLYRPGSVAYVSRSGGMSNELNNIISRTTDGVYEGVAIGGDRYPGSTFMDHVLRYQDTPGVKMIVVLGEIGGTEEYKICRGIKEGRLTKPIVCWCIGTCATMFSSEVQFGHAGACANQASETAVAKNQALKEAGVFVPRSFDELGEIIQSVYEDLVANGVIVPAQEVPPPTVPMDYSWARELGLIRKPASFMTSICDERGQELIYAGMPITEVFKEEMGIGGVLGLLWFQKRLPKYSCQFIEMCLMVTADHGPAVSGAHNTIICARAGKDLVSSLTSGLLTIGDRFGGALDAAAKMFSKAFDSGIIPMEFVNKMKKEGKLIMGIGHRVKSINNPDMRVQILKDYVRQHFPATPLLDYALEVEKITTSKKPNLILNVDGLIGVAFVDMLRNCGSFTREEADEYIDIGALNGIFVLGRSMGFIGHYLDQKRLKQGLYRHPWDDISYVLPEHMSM

Structure (SMILES)	IC50 (ACC2) [µM]	IC50 (ACC1) [µM]	IC50 (HepG2 cells [1]) [µM]	IC50 (HepG2 cells [2]) [µM]	IC50 (ACL) [µM]
O=C(c1c2ccccc2cc2ccccc12)N1CCC(N2CCC[C@@H](C(=O)N3CCOCC3)C2)CC1 [CP-640186]	~0.06	~0.06	–	–	–
O=S(=O)(c1cc(Br)cc(Cl)c1O)n1c(-c2ccccc2)cc2cc(Cl)ccc21 [I-1, 4-bromo-2-chloro-6-((5-chloro-2-phenyl-1H-indol-1-yl)sulfonyl)phenol]	–	–	≤ 10	≤ 10	0.5 to 20
O=S(=O)(c1cc(Br)cc(Cl)c1O)n1c(-c2ccc(OC(F)(F)F)cc2)cc2cc(Cl)ccc21 [I-25, 4-bromo-2-chloro-6-((5-chloro-2-(4-(trifluoromethoxy)phenyl)-1H-indol-1-yl)sulfonyl)phenol]	–	–	≤ 10	≤ 10	0.5 to 20
COc1ccc(-c2cc3cc(Cl)ccc3n2S(=O)(=O)c2cc(Br)cc(Cl)c2O)cc1 [I-26, 4-bromo-2-chloro-6-((5-chloro-2-(4-methoxyphenyl)-1H-indol-1-yl)sulfonyl)phenol]	–	–	≤ 10	≤ 10	0.5 to 20
COc1ccc(-c2cc3cc(Cl)ccc3n2S(=O)(=O)c2cc(Br)cc(Cl)c2O)cn1 [I-28, 4-bromo-2-chloro-6-((5-chloro-2-(6-methoxypyridin-3-yl)-1H-indol-1-yl)sulfonyl)phenol]	–	–	≤ 10	≤ 10	0.5 to 20
Cc1cc2cc(Cl)ccc2n1S(=O)(=O)c1cc(Br)cc(Cl)c1O [I-30, 4-bromo-2-chloro-6-((5-chloro-2-methyl-1H-indol-1-yl)sulfonyl)phenol]	–	–	≤ 10	≤ 10	0.5 to 20
O=S(=O)(c1cc(Br)cc(Cl)c1O)n1c(-c2cncs2)cc2cc(Cl)ccc21 [I-33, 4-bromo-2-chloro-6-((5-chloro-2-(thiazol-5-yl)-1H-indol-1-yl)sulfonyl)phenol]	–	–	≤ 10	≤ 10	0.5 to 20
O=S(=O)(c1cc(Br)cc(Cl)c1O)n1c(-c2cccc(F)c2)cc2cc(Cl)ccc21 [I-40]	–	–	≤ 10	≤ 10	0.5 to 20
O=S(=O)(c1cc(Br)cc(Cl)c1O)n1c(-c2ccccc2)cc2cc(F)ccc21 [I-42]	–	–	≤ 10	≤ 10	0.5 to 20
Cc1c(-c2ccccc2)n(S(=O)(=O)c2cc(Br)cc(Cl)c2O)c2ccc(Cl)cc12 [I-47]	–	–	≤ 10	≤ 10	0.5 to 20
N#Cc1ccc2c(c1)cc(-c1ccccc1)n2S(=O)(=O)c1cc(Br)cc(Cl)c1O [I-48]	–	–	≤ 10	≤ 10	0.5 to 20
O=S(=O)(c1cc(F)cc(F)c1O)n1c(-c2ccccc2)cc2cc(Cl)ccc21 [I-61]	–	–	≤ 10	≤ 10	0.5 to 20
N#Cc1ccc2c(c1)cc(-c1ccc(OC(F)(F)F)cc1)n2S(=O)(=O)c1cc(F)cc(F)c1O [I-81]	–	–	≤ 10	≤ 10	0.5 to 20
